Experiments:
Assay in all cases: CEREP radioligand binding
V1a (h) = V1a (h) (Homo sapiens, UniProt P37288); settings: radioligand [^3H]-AVP
Excerpt: (§1) Supplement Table1.docx, table 3: Supplementary Table S3. RG7774 binding to non-CB1R/CB2R receptors, ion channels, transporters, and enzymes (CEREP, Celle l’Evescault, France; http://www.cerep.fr). | column: % inhibition of control SB (n = 2)

CCK1 (CCKA) (h) = CCK1 (CCKA) (h) (Homo sapiens, UniProt P32238); settings: radioligand [^125I]-CCK-8s
Excerpt: as §1

NK3 (h) = NK3 (h) (Homo sapiens, UniProt P29371); settings: radioligand [^3H]-SR 142801
Sequence of NK3 (h) (P29371 whole entry): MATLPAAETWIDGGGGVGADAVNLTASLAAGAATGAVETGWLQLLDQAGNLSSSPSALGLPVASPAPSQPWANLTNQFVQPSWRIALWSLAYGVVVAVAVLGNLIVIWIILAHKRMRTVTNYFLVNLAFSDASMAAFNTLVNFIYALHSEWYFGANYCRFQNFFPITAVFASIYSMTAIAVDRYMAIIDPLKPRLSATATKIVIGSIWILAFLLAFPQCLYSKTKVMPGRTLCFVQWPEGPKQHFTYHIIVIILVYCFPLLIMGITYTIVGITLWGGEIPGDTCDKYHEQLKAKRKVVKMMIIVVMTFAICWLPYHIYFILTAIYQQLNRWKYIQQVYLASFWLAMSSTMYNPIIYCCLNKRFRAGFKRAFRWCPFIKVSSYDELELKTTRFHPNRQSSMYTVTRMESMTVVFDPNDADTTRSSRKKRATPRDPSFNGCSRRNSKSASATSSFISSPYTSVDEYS
Excerpt: as §1

sst (non-selective) = settings: radioligand [^125I]-Tyr^11-somatostatin-14
Excerpt: as §1

AT2 (h) = AT2 (h) (Homo sapiens, UniProt P50052); settings: radioligand [^125I]-CGP 42112A
Sequence of AT2 (h) (P50052 whole entry): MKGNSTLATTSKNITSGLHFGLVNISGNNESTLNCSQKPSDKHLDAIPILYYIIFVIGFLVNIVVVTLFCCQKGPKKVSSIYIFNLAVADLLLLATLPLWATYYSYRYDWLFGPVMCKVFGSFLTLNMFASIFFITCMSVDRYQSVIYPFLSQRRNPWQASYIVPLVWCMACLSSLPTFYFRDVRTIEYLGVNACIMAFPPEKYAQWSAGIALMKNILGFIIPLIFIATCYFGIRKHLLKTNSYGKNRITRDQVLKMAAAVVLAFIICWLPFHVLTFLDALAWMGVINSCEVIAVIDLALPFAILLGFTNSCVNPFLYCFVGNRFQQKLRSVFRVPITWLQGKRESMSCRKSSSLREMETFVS
Excerpt: as §1

CCR1 = CCR1 (Homo sapiens, UniProt P32246); settings: radioligand [^125I]-MIP-1α
Excerpt: as §1

M1 (h) = M1 (h) (Homo sapiens, UniProt P11229); settings: radioligand [^3H]-pirenzepine
Sequence of M1 (h) (P11229 whole entry): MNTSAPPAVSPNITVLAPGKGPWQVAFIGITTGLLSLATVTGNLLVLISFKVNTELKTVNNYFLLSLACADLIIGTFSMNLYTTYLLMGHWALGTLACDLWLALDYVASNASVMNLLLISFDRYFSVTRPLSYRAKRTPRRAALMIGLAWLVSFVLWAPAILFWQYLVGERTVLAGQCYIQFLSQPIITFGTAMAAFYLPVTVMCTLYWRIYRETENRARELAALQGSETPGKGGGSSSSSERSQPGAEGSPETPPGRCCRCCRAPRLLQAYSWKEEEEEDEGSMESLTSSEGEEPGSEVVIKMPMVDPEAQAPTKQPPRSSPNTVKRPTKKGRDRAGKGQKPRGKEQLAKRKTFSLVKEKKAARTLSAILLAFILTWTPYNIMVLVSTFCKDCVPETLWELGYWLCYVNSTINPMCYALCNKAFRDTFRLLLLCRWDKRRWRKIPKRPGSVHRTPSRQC
Excerpt: as §1

μ(MOP) (h) = μ(MOP) (h) (Homo sapiens, UniProt P35372); settings: radioligand [^3H]-DAMGO
Excerpt: as §1

BZD (central) = settings: radioligand [^3H]-flunitrazepam
Excerpt: as §1

δ(DOP) (h) = δ(DOP) (h) (Homo sapiens, UniProt P41143); settings: radioligand [^3H]-DADLE
Sequence of δ(DOP) (h) (P41143 whole entry): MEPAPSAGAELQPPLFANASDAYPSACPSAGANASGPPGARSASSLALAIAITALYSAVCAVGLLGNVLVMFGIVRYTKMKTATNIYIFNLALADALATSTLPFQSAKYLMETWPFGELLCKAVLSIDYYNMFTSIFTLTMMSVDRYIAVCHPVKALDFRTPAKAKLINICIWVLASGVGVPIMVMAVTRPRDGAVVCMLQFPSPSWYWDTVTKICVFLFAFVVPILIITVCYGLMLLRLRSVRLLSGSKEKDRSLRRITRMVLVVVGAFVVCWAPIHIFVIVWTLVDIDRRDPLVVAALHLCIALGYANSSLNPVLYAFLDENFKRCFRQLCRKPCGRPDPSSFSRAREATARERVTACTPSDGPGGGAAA
Excerpt: as §1

PPARγ (h) = PPARγ (h) (Homo sapiens, UniProt P37231); settings: radioligand [^3H]-rosiglitazone
Excerpt: as §1

CXCR2 = CXCR2 (Homo sapiens, UniProt P25025); settings: radioligand [^125I]-IL-8
Excerpt: as §1

Alpha 1 (non-selective) = settings: radioligand [^3H]-prazosin
Excerpt: as §1

D5 = D5 (Homo sapiens, UniProt P21918); settings: radioligand [^3H]-SCH 23390
Excerpt: as §1

AT1 (h) = AT1 (h) (Homo sapiens, UniProt P30556); settings: radioligand [^125I]-[Sar^1,Ile^8]-AT-II
Excerpt: as §1

PAC1 (PACAP) (h) = PAC1 (PACAP) (h) (Homo sapiens, UniProt P41586); settings: radioligand [^125I]-PACAP1-27
Excerpt: as §1

A3 (h) = A3 (h) (Homo sapiens, UniProt P0DMS8); settings: radioligand [^125I]-AB-MECA
Sequence of A3 (h) (P0DMS8 whole entry): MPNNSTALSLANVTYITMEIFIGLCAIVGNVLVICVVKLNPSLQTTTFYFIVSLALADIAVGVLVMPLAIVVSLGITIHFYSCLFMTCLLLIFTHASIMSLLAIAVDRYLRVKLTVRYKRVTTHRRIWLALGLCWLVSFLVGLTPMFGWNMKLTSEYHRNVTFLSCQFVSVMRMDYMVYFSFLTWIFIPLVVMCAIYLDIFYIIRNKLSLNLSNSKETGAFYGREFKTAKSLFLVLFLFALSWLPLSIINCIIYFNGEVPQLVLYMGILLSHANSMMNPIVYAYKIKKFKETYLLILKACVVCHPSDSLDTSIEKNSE
Excerpt: as §1

5-HT2B (h) = 5-HT2B (h) (Homo sapiens, UniProt P41595); settings: radioligand [^125I](±)DOI
Sequence of 5-HT2B (h) (P41595 whole entry): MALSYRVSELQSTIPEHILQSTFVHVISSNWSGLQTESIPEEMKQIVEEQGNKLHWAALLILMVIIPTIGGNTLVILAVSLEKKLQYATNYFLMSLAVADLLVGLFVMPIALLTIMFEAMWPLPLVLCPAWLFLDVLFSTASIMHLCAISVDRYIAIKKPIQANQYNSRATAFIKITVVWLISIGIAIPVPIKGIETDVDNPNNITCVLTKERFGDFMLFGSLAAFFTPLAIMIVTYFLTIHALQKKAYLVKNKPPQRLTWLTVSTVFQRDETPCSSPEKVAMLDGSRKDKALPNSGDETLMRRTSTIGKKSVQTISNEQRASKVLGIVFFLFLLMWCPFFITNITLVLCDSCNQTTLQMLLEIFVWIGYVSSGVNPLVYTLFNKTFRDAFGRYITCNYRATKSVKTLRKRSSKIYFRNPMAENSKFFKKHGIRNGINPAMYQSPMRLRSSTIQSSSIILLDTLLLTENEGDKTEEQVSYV
Excerpt: as §1

NTS1 (NT1) (h) = NTS1 (NT1) (h) (Homo sapiens, UniProt P30989); settings: radioligand [^125I]-Tyr3-neurotensin
Sequence of NTS1 (NT1) (h) (P30989 whole entry): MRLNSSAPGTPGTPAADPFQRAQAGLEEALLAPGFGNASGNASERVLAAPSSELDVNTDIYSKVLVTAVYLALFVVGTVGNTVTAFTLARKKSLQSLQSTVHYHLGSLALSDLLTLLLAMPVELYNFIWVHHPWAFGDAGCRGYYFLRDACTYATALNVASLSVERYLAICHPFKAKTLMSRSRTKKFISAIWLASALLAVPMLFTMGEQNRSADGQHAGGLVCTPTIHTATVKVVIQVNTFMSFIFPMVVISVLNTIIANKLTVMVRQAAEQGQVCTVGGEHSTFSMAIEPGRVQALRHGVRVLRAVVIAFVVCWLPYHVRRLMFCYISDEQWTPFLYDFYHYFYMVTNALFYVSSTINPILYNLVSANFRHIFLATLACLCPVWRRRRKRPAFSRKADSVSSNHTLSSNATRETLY
Excerpt: as §1

B2 (h) = B2 (h) (Homo sapiens, UniProt P30411); settings: radioligand [^3H]-bradykinin
Excerpt: as §1

Beta 1 (h) = Beta 1 (h) (Homo sapiens, UniProt P08588); settings: radioligand [^3H](-)CGP 12177
Sequence of Beta 1 (h) (P08588 whole entry): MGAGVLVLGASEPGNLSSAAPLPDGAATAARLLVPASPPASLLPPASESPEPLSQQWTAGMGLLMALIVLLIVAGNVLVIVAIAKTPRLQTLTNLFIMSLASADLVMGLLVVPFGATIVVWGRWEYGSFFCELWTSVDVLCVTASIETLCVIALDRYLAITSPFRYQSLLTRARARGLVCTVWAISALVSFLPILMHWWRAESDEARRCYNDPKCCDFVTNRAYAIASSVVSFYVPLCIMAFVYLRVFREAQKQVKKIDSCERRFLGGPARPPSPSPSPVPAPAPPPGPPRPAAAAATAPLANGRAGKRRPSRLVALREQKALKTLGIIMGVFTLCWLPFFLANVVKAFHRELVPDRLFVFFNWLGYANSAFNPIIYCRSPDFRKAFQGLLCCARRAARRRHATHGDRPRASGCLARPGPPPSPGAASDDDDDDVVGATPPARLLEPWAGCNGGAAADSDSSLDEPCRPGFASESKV
Excerpt: as §1

P2X = settings: radioligand [^3H]-α,β-MeATP
Excerpt: as §1

A1 (h) = A1 (h) (Homo sapiens, UniProt P30542); settings: radioligand [^3H]-DPCPX
Excerpt: as §1

[1] = system: Ca2+ channel (L, verapamil site) (phenylalkylamine); settings: radioligand [^3H]-D888
Excerpt: as §1

κ(KOP) = κ(KOP) (Rattus norvegicus, UniProt P34975); settings: radioligand [^3H]-U 69593
Sequence of κ(KOP) (P34975 whole entry): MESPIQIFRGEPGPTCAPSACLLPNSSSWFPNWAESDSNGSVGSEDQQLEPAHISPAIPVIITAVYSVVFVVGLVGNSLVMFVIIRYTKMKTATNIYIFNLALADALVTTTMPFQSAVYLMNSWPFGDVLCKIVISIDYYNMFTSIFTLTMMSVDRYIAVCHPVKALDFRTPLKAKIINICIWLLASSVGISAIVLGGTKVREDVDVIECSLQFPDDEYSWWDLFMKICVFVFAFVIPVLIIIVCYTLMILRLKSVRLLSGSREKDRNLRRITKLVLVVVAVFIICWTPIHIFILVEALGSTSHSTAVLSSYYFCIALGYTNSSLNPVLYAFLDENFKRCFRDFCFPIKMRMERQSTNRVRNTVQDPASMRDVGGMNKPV
Excerpt: as §1

GR (h) = GR (h) (Homo sapiens, UniProt P04150); settings: radioligand [^3H]-dexamethasone
Excerpt: as §1

5-HT transporter (h) = 5-HT transporter (h) (Homo sapiens, UniProt P31645); settings: radioligand [^3H]-imipramine
Excerpt: as §1

5-HT1A (h) = 5-HT1A (h) (Homo sapiens, UniProt P08908); settings: radioligand [^3H]-8-OH-DPAT
Sequence of 5-HT1A (h) (P08908 whole entry): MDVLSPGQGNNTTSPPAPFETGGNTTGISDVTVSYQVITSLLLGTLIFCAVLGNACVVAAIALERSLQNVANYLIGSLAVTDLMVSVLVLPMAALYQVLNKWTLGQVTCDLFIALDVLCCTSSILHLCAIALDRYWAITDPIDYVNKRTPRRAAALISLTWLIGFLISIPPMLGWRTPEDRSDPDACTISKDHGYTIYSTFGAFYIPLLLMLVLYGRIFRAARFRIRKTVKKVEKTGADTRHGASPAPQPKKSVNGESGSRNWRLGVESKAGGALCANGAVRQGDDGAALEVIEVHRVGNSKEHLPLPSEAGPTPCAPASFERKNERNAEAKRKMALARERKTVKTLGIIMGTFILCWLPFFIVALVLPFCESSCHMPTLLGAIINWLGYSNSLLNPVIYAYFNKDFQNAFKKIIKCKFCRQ
Excerpt: as §1

NOP (ORL1) (h) = NOP (ORL1) (h) (Homo sapiens, UniProt P41146); settings: radioligand [^3H]-nociceptin
Sequence of NOP (ORL1) (h) (P41146 whole entry): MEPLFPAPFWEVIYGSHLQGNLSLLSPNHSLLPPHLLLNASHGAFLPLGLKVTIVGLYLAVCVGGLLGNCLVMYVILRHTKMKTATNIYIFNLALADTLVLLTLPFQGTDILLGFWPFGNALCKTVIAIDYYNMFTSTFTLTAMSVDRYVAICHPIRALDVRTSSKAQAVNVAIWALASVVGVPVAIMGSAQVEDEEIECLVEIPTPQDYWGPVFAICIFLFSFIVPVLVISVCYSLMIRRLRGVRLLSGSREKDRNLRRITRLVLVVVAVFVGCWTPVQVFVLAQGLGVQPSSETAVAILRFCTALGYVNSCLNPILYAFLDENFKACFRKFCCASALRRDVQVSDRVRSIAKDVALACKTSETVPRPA
Excerpt: as §1

D1 (h) = D1 (h) (Homo sapiens, UniProt P21728); settings: radioligand [^3H]-SCH 23390
Excerpt: as §1

D2S (h) = D2S (h) (Homo sapiens, UniProt P14416); settings: radioligand [^3H]-methyl-spiperone
Sequence of D2S (h) (P14416 1-414 isoform P14416-2): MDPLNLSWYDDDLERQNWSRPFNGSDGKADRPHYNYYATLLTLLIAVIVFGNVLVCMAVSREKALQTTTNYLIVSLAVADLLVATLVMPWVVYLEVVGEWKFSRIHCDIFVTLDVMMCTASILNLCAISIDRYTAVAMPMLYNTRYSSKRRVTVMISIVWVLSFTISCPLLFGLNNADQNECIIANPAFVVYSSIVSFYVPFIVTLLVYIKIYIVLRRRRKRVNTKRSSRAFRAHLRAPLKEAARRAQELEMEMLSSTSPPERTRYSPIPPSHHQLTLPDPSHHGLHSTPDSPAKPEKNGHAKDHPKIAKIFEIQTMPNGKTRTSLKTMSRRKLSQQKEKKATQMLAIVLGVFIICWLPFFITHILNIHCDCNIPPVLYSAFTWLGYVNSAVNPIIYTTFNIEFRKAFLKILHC
Excerpt: as §1

Cn1nnnc1Cn1nnc2c(N3CC[C@H](O)C3)nc(C(C)(C)C)nc21 [RG7774, (S)-1-(5-tert-butyl-3-[(1-methyl-1H-tetrazol-5-yl)methyl]-3H-[1,2,3]triazolo[4,5-d]pyrimidin-7-yl)pyrrolidin-3-ol]
% inhibition of control SB (n = 2) (V1a (h)): 7.5%
% inhibition of control SB (n = 2) (CCK1 (CCKA) (h)): –7.4%
% inhibition of control SB (n = 2) (NK3 (h)): 8.2%
% inhibition of control SB (n = 2) (sst (non-selective)): –22.2%
% inhibition of control SB (n = 2) (AT2 (h)): 3.1%
% inhibition of control SB (n = 2) (CCR1): 5.6%
% inhibition of control SB (n = 2) (M1 (h)): –15.6%
% inhibition of control SB (n = 2) (μ(MOP) (h)): –2.5%
% inhibition of control SB (n = 2) (BZD (central)): –0.7%
% inhibition of control SB (n = 2) (δ(DOP) (h)): 4.7%
% inhibition of control SB (n = 2) (PPARγ (h)): 1.7%
% inhibition of control SB (n = 2) (CXCR2): –7.7%
% inhibition of control SB (n = 2) (Alpha 1 (non-selective)): 6.9%
% inhibition of control SB (n = 2) (D5): –2.0%
% inhibition of control SB (n = 2) (AT1 (h)): –5.6%
% inhibition of control SB (n = 2) (PAC1 (PACAP) (h)): –1.3%
% inhibition of control SB (n = 2) (A3 (h)): –0.6%
% inhibition of control SB (n = 2) (5-HT2B (h)): –24.1%
% inhibition of control SB (n = 2) (NTS1 (NT1) (h)): –4.7%
% inhibition of control SB (n = 2) (B2 (h)): –1.6%
% inhibition of control SB (n = 2) (Beta 1 (h)): –3.1%
% inhibition of control SB (n = 2) (P2X): 25.9%
% inhibition of control SB (n = 2) (A1 (h)): 3.6%
% inhibition of control SB (n = 2) [1]: 3.0%
% inhibition of control SB (n = 2) (κ(KOP)): –12.7%
% inhibition of control SB (n = 2) (GR (h)): 3.0%
% inhibition of control SB (n = 2) (5-HT transporter (h)): 22.2%
% inhibition of control SB (n = 2) (5-HT1A (h)): 3.6%
% inhibition of control SB (n = 2) (NOP (ORL1) (h)): 2.7%
% inhibition of control SB (n = 2) (D1 (h)): –1.0%
% inhibition of control SB (n = 2) (D2S (h)): 12.0%
